Experimental findings from ChEMBL document CHEMBL6120956, “Discovery of a Potent, Orally Active, and Long-Lasting P2X7 Receptor Antagonist as a Preclinical Candidate for Delaying the Progression of Chronic Kidney Disease” (J Med Chem, 2024) are described below.

Activity calls are given as the source filed them. The calls are words filed in the database; no cut-off is given here.

In series [1] the target is T1, P2X purinoceptor 7 (Mus musculus) (UniProt Q9Z1M0).
T1 sequence (whole entry): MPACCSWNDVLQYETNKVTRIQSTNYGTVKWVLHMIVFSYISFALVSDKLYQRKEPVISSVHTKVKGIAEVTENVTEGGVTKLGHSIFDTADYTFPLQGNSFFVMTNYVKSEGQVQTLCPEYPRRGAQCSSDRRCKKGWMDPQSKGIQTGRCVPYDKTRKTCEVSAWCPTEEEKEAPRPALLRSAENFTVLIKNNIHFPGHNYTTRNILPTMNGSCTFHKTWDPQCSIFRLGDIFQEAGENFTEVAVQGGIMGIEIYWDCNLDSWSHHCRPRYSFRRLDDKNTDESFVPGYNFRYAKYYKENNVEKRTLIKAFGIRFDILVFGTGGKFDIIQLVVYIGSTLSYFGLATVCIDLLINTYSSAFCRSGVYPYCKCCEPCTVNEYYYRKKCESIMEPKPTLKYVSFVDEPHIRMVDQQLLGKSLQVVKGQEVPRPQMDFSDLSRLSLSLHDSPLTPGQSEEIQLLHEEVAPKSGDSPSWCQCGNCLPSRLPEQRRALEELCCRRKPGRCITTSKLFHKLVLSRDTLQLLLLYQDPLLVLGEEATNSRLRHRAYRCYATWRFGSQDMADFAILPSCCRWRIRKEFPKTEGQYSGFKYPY
Description: Antagonist activity against mouse P2X7 receptor expressed in ATP-stimulated HEK293 cells assessed as influx of PI at 1 uM by fluorescence dye uptake assay relative to control. The series is classed as cell-based. Also noted: scale not given: the % may be the effect or the level left.

Series [2] concerns the target T1, P2X purinoceptor 7 (Mus musculus). Description: Antagonist activity against mouse P2X7 receptor expressed in ATP-stimulated HEK293 cells assessed as influx of PI at 200 nM by fluorescence dye uptake assay relative to control. It counts as cell-based. Also noted: scale not given: the % may be the effect or the level left.
In another series the target is T2, P2X purinoceptor 7 (Mus musculus, UniProt Q9Z1M0).
T2 sequence (Q9Z1M0 whole entry): T1 sequence (whole entry)
The series is described as follows: Antagonist activity against mouse P2X7 receptor expressed in ATP-stimulated HEK293 cells assessed as influx of PI by fluorescence dye uptake assay relative to control. The series is classed as cell-based.

Series [3] can be described thus: Metabolic stability in human liver microsomes assessed as clearance. The series is classed as ADME, Microsome. The settings on record: read-out: CLH.
The nature of series [4]: Metabolic stability in human liver microsomes assessed as half life. It counts as ADME, Microsome.
A short description of series [5]: Metabolic stability in mouse liver microsomes assessed as clearance. The series is classed as ADME, Microsome. To be noted: read-out: CLH.
Series [6] can be described thus: Metabolic stability in mouse liver microsomes assessed as half life. It counts as ADME, Microsome.
Series [7] in a line: AUC (0 to t) in male BALB/c mouse at 10 mg/kg, po single administration measured upto 72 hrs by LC-MS/MS analysis. It counts as ADME, organism-based. To be noted: in vivo.
Series [8] can be described thus: Clearance in male BALB/c mouse at 10 mg/kg, po single administration measured upto 72 hrs by LC-MS/MS analysis. It counts as ADME, organism-based. The settings on record: in vivo.
The nature of series [9]: Cmax in male BALB/c mouse at 10 mg/kg, po single administration measured upto 72 hrs by LC-MS/MS analysis. It counts as ADME, organism-based. To be noted: in vivo.
A short description of series [10]: Half life in male BALB/c mouse at 10 mg/kg, po single administration measured upto 72 hrs by LC-MS/MS analysis. The series is classed as ADME, organism-based. The settings on record: in vivo.
Series [11] can be described thus: Tmax in male BALB/c mouse at 10 mg/kg, po single administration measured upto 72 hrs by LC-MS/MS analysis. To be noted: in vivo. It counts as ADME, organism-based.

With `COc1ccnc(-n2cc(CNC(=O)c3cnc(-c4ccc(S(C)(=O)=O)cc4)s3)nn2)c1`, the Activity in series [1] was 9.9%. Besides, the outcome in series [2] was inactive.

Take `CS(=O)(=O)c1ccc(-c2ncc(C(=O)NCc3cn(-c4cccc(Br)n4)nn3)s2)cc1`: the Activity came to 45% in series [1] and 10.7% in series [2].

In the case of `CS(=O)(=O)c1ccc(-c2nc(C(=O)NCc3cn(-c4cc(-c5ccc(C(F)(F)F)cc5)ccn4)nn3)cs2)cc1`, the Activity stood at 37% in [1] and 27.1% in series [2].

Regarding `CS(=O)(=O)c1ccc(-c2ncc(C(=O)NCc3cn(-c4ccc(Br)nc4)nn3)s2)cc1`, the Activity in series [1] came to 42.8%; in [2], 35%.

Regarding `CS(=O)(=O)c1ccc(-c2ncc(C(=O)NCc3cn(-c4ccc(F)cn4)nn3)s2)cc1`, the Activity in series [1] came out at 25.7%; in series [2], 12.4%.

As to `CS(=O)(=O)c1ccc(-c2nc(C(=O)NCc3cn(-c4cc(N5CCC(F)(F)CC5)ccn4)nn3)cs2)cc1`, on P2X purinoceptor 7, the half-maximal inhibitory concentration (IC50) stood at 103 nM. The CLint scaled in series [3] came out at 54.2 mL/min/kg; in series [5], 273 mL/min/kg. The half-life was found to be 0.535 h in [4] and 0.333 h in [6].

For the compound `CS(=O)(=O)c1ccc(-c2nc(C(=O)NCc3cn(-c4cc(-c5ccc(C(F)(F)F)s5)ccn4)nn3)cs2)cc1`, the Activity in series [1] worked out at 28.7%; in series [2], 24.9%.

On to `CS(=O)(=O)c1ccc(-c2ncc(C(=O)NCc3cn(-c4ccncc4Br)nn3)s2)cc1`, for which the Activity in series [1] turned out to be 41%; in series [2] it was 25.9%.

Regarding `CS(=O)(=O)c1ccc(-c2nc(C(=O)NCc3cn(-c4ccc(Cl)cn4)nn3)cs2)cc1`, the result in series [1] and in series [2] was inactive.

As for `CS(=O)(=O)c1ccc(-c2ncc(C(=O)NCc3cn(-c4cc(-c5ccc(C(F)(F)F)s5)ccn4)nn3)s2)cc1`, the values for the Activity in series [1] and in series [2] were 35.6% and 18.4%, respectively.

In the case of `CS(=O)(=O)c1ccc(-c2ncc(C(=O)NCc3cn(-c4cc(NC5CC(F)(F)C5)ccn4)nn3)s2)cc1`, the IC50 on P2X purinoceptor 7 was 138 nM. Further, the CLint scaled in [3] was under 12 mL/min/kg; in series [5], 142 mL/min/kg. Also, the results for the half-life in [4] and in series [6] were over 2 h and 0.67 h, respectively.

In series [7], `CS(=O)(=O)c1ccc(-c2nc(C(=O)NCc3cn(-c4cc(Br)ccn4)nn3)cs2)cc1` showed an AUC(0-t) at 72 h of 6510 ng·h/mL. The same compound gave a CL/F in series [8] of 25.8 mL/min/kg. Besides, the Cmax in series [9] came to 1300 ng/mL. Further, the half-life in series [10] is 1.91 h. For the same compound, the Tmax in [11] came out at 1.17 h.

In the case of `CS(=O)(=O)c1ccc(-c2ncc(C(=O)NCc3cn(-c4cncc(Br)c4)nn3)s2)cc1`, the Activity in series [1] was determined as 36.8%; in [2], 33.5%.

With `CS(=O)(=O)c1ccc(-c2ncc(C(=O)NCc3cn(-c4ccnc(Br)c4)nn3)s2)cc1`, the outcome in [1] and in series [2] was inactive.

Take `CS(=O)(=O)c1ccc(-c2nc(C(=O)NCc3cn(-c4cccc(Br)n4)nn3)cs2)cc1`: the Activity was found to be 50% in [1] and 15.6% in series [2].

Take `CS(=O)(=O)c1ccc(-c2ncc(C(=O)NCc3cn(-c4cc(-c5ccc(C(F)(F)F)cc5)ccn4)nn3)s2)cc1`: the outcome in [1] and in [2] was inactive.

Consider `CS(=O)(=O)c1ccc(-c2nc(C(=O)NCc3cn(-c4cc(-c5cncc(C(F)(F)F)c5)ccn4)nn3)cs2)cc1`, for which the Activity came out at 32.5% in series [1] and 30.3% in series [2].

For `CS(=O)(=O)c1ccc(-c2nc(C(=O)NCc3cn(-c4ccnc(Br)c4)nn3)cs2)cc1`, the outcome in series [1] and in [2] was inactive.

On to `C[C@H](NC(=O)c1csc(-c2ccc(S(C)(=O)=O)cc2)n1)c1cn(-c2cc(C(F)(F)F)ccn2)nn1`, for which the IC50 on P2X purinoceptor 7 was found to be 98.6 nM. Also, the CLint scaled in series [3] and in series [5] was under 12 mL/min/kg throughout. The half-life in series [4] was over 2 h; in series [6] it was over 2 h; in [10], 7.38 h. This compound also came in with an area under the curve AUC(0-t) at 72 h in [7] of 107000 ng·h/mL. This compound had a CL/F in series [8] of 1.5 mL/min/kg. The same compound returned a Cmax in series [9] of 3230 ng/mL. Besides, the Tmax in series [11] amounted to 7.33 h.

`CS(=O)(=O)c1ccc(-c2nc(C(=O)NCc3cn(-c4ccncc4Br)nn3)cs2)cc1`: the Activity in [1] worked out at 39.5%; in series [2], 28.6%.

As to `CS(=O)(=O)c1ccc(-c2nc(C(=O)NCc3cn(-c4cc(Nc5cnn(C(F)F)c5)ccn4)nn3)cs2)cc1`, the values for the Activity in [1] and in [2] were 11.4% and 28.7%, respectively.

Turning to `Cc1ccnc(-n2cc(CNC(=O)c3cnc(-c4ccc(S(C)(=O)=O)cc4)s3)nn2)c1`, the Activity stood at 44.4% in [1] and 30.7% in series [2].

Take `CS(=O)(=O)c1ccc(-c2ncc(C(=O)NCc3cn(-c4ccc(Cl)cn4)nn3)s2)cc1`: in [1], the Activity is 28.1%. For the same compound, in series [2], the outcome was inactive.

Take `Clc1cccc(-n2nnnc2NCc2ccccc2Oc2ccccn2)c1Cl`: the Activity in series [1] stood at 96.3%; in series [2], 90.7%.

As to `CS(=O)(=O)c1ccc(-c2nc(C(=O)NCc3cn(-c4cncc(Br)c4)nn3)cs2)cc1`, the results for the Activity in series [1] and in [2] were 23.9% and 17.7%, respectively.

Consider `CS(=O)(=O)c1ccc(-c2nc(C(=O)NCc3cn(-c4ccc(Br)nc4)nn3)cs2)cc1`, for which the Activity in series [1] worked out at 10%. Besides, in [2], the result was inactive.

Turning to `CS(=O)(=O)c1ccc(-c2ncc(C(=O)NCc3cn(-c4cc(C(F)(F)F)ccn4)nn3)s2)cc1`, the IC50 on P2X purinoceptor 7 came out at 80.6 nM. In addition, the figures for the CLint scaled in [3] and in series [5] were under 12 mL/min/kg and 22.8 mL/min/kg, respectively. The half-life in series [4] is over 2 h; in [6], over 2 h; in series [10] it was 3.35 h. The same compound gave an AUC(0-t) at 72 h in series [7] of 14100 ng·h/mL. Also, the CL/F in series [8] is 11.8 mL/min/kg. Also, the Cmax in [9] was determined as 2230 ng/mL. Further, in series [11], the Tmax was determined as 2 h.

On to `CS(=O)(=O)c1ccc(-c2nc(C(=O)NCc3cn(-c4cc(NC5CC(F)(F)C5)ccn4)nn3)cs2)cc1`, for which, on P2X purinoceptor 7, the IC50 was 55.5 nM. The CLint scaled in series [3] was 13.8 mL/min/kg; in series [5], 166 mL/min/kg. Moreover, the half-life in series [4] is over 2 h; in [6], 0.547 h.

For `CS(=O)(=O)c1ccc(-c2nc(C(=O)NCc3cn(-c4ccc(F)cn4)nn3)cs2)cc1`, the results for the Activity in series [1] and in series [2] were 48.4% and 13.3%, respectively.

Regarding `CS(=O)(=O)c1ccc(-c2ncc(C(=O)NCc3cn(-c4cc(-c5cccc(C(F)(F)F)c5)ccn4)nn3)s2)cc1`, the Activity in [1] is 27.4%; in [2] it was 13.3%.

`CS(=O)(=O)c1ccc(-c2ncc(C(=O)NCc3cn(-c4cc(N5CCC(F)(F)CC5)ccn4)nn3)s2)cc1`: the half-inhibitory concentration (IC50) at P2X purinoceptor 7 amounted to 61 nM. For the same compound, the figures for the CLint scaled in series [3] and in series [5] were 21.8 mL/min/kg and 92.1 mL/min/kg, respectively. Further, the half-life in [4] is 1.33 h; in [6] it was 0.987 h.

Regarding `Cc1ccnc(-n2cc(CNC(=O)c3csc(-c4ccc(S(C)(=O)=O)cc4)n3)nn2)c1`, the Activity in [1] worked out at 5.1%. In addition, the outcome in series [2] was inactive.

Turning to `CS(=O)(=O)c1ccc(-c2nc(C(=O)NCc3cn(-c4cc(-c5cccc(C(F)(F)F)c5)ccn4)nn3)cs2)cc1`, the IC50 at P2X purinoceptor 7 turned out to be 449 nM.

Consider `COc1ccnc(-n2cc(CNC(=O)c3csc(-c4ccc(S(C)(=O)=O)cc4)n3)nn2)c1`, for which the Activity in [1] came out at 20.2%; in series [2] it was 6%.

With `CS(=O)(=O)c1ccc(-c2nc(C(=O)NCc3cn(-c4cc(C(F)(F)F)ccn4)nn3)cs2)cc1`, on P2X purinoceptor 7, the IC50 was 70.2 nM. In addition, the CLint scaled in series [3] and in series [5] was under 12 mL/min/kg in each case. In addition, the half-life in series [4] is over 2 h; in series [6], over 2 h; in [10] it was 4.08 h. For the same compound, the AUC(0-t) at 72 h in [7] was 49800 ng·h/mL. In addition, the apparent clearance CL/F in series [8] was 3.33 mL/min/kg. In [9], this compound displayed a Cmax of 4530 ng/mL. Besides, in series [11], the Tmax came to 1.83 h.

Consider `CS(=O)(=O)c1ccc(-c2ncc(C(=O)NCc3cn(-c4cc(Nc5cnn(C(F)F)c5)ccn4)nn3)s2)cc1`, for which the Activity in series [1] stood at 32.5%; in [2] it was 26.6%.

Turning to `CS(=O)(=O)c1ccc(-c2ncc(C(=O)NCc3cn(-c4cc(-c5cncc(C(F)(F)F)c5)ccn4)nn3)s2)cc1`, the Activity is 49.6% in [1] and 42.8% in series [2].
